# In ChEMBL document CHEMBL4834400 (J Med Chem, 2021):
# Experiments:
# [1] = Ratio of drug concentration in brain to plasma in Wistar Han rat at 100 mg/kg, po measured at 0.37 hrs by HPLC-MS/MS
# [2] = Drug concentration in Wistar Han rat brain at 100 mg/kg, po measured at 2 hrs by HPLC-MS/MS
# [3] = Drug concentration in Wistar Han rat plasma at 100 mg/kg, po measured at 0.37 hrs by HPLC-MS/MS
# [4] = Ratio of drug concentration in brain to plasma in Wistar Han rat at 100 mg/kg, po measured at 2 hrs by HPLC-MS/MS
# [5] = Drug concentration in Wistar Han rat plasma at 100 mg/kg, po measured at 2 hrs by HPLC-MS/MS
# [6] = Drug concentration in Wistar Han rat brain at 100 mg/kg, po measured at 0.37 hrs by HPLC-MS/MS
# [7] = Ratio of drug concentration in brain to plasma in Wistar Han rat at 100 mg/kg, po measured at 6 hrs by HPLC-MS/MS
# [8] = Drug concentration in Wistar Han rat plasma at 100 mg/kg, po measured at 6 hrs by HPLC-MS/MS
# [9] = Drug concentration in Wistar Han rat brain at 100 mg/kg, po measured at 6 hrs by HPLC-MS/MS
# [10] = Drug concentration in Sprague-Dawley rat at 5 mg/kg, iv measured at 0 hrs; conditions: in vivo
# [11] = Clearance in Sprague-Dawley rat at 5 mg/kg, iv; conditions: in vivo
# [12] = Half life in Sprague-Dawley rat at 5 mg/kg, iv; conditions: in vivo
# [13] = Half life in Sprague-Dawley rat at 10 mg/kg, po; conditions: in vivo
# in vivo [14] = conditions: Sprague-Dawley, rat, plasma, po, 10 mg/kg
# [15] = Volume of distribution at steady state in Sprague-Dawley rat at 5 mg/kg, iv; conditions: in vivo
# in vivo [16] = conditions: Sprague-Dawley, rat, po, 10 mg/kg
# in vivo [17] = conditions: Sprague-Dawley, rat, plasma, po, 10 mg/kg; remark: listed apart in the source
Kp at […] [1],concentration at 2 h [2] [ng/g],concentration at […] [3] [ng/mL],Kp at 2 h [4],concentration at 2 h [5] [ng/mL],concentration at […] [6] [ng/g],Kp at 6 h [7],concentration at 6 h [8] [ng/mL],concentration at 6 h [9] [ng/g],concentration at 0 h [10] [ng/mL],clearance [11] [mL/min/kg],half-life [12] [min],half-life [13] [min],Cmax at 24 h (in vivo [14]) [ng/mL],Vd [15] [L/kg],bioavailability (in vivo [16]) [%],AUC(0-inf) (in vivo [17]) [ng·h/mL],Structure (SMILES)
3.19,3200,4200,2.73,1230,13800,2.73,450,1210,,,,,,,,,COc1ccc2cccc(CCNC(C)=O)c2c1 [AGOMELATINE]
,,,,,,,,,935,35.2,19.8,31.8,2790,1.05,53.5,2490,COc1ccc2[nH]cc(CCNC(C)=O)c2c1 [MELATONIN]
0.91,3030,3160,0.86,3450,2850,1.02,1150,1190,,,,,,,,,CCC(=O)NCC[C@@H]1CCc2ccc3c(c21)CCO3 [RAMELTEON]
